Key:
Male C57Bl/6J mice = assay: Marble burying test; format: in vivo; design: key: −: No reduction in number of marbles buried; +: Significant reduction in number of marbles buried (P < 0.05 vs vehicle); conditions: 1 mg/kg (i.p.)
Method: The marble burying assay is used to evaluate the anxiolytic activity of a test compound. After placement in a novel cage containing glass marbles, mice will bury the marbles. Acute administration of anxiolytic agents, as well as antidepressants, decrease this activity at non-sedating doses. Male C57Bl/6J mice from Jackson Laboratories were used in this study and were acclimatized to the experimental room for at least 1 hour prior to testing. Mice (n=10 per group) were administered sterile water or test compound intraperitoneally (i.p.) or orally by gavage (p.o.), or the positive control chlordiazepoxide (15 mg/kg, i.p.), in 10 mL/kg injection volumes, and returned to their home cages for a 30-minute pretreatment period. The mice were then placed individually in clean cages, containing hard wood bedding and twenty black marbles placed in spaced rows of 4×5. After a 30-minute test session, the number of buried marbles was counted. A marble was considered buried if it was pushed at least two thirds into the bedding. Locomotor activity was monitored by measuring the distance traveled using an overhead camera and Video Tracker Software (ViewPoint Life Sciences Software, France). A reduction in the number of marbles buried relative to the vehicle condition indicates an anxiolytic drug-like effect.

compound-treated mice = assay: Neuropharmacological assay (SmartCube): behavioral activity signature and minimal effective dose; format: in vivo; conditions: for minimal effective dose: Mus musculus, ip, MED = dose having 50% or more total activity, read-out: Potency: minimal effective dose (MED), binned; for AD: ADHD (probability of activity signature) / AG: analgesic (probability of activity signature) / AX: anxiolytic (probability of activity signature) / CE: cognitive enhancer (probability of activity signature) / DP: anti-depressant (probability of activity signature) / MS: mood stabilizer (probability of activity signature) / PS: anti-psychotic (probability of activity signature) / SD: sedative hypnotic (probability of activity signature) / UN: uncharacterized CNS activity (probability of activity signature): i.p. 15 min before test, most efficacious dose(s)
Method in brief: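 Video-recorded behavior is compared algorithmically against a reference-compound database, yielding class probabilities (best dose reported). Compounds given i.p. in NMP/PEG/propylene glycol 15 min pre-test at 3 doses; potency as MED, the dose (mpk, range usually 0.3–30) reaching ≥50% total activity.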

| SMILES | Marbles Buried (Male C57Bl/6J mice) | minimal effective dose (compound-treated mice) [mg/kg] | AD: ADHD (probability of activity signature) (compound-treated mice) | AG: analgesic (probability of activity signature) (compound-treated mice) | AX: anxiolytic (probability of activity signature) (compound-treated mice) | CE: cognitive enhancer (probability of activity signature) (compound-treated mice) | DP: anti-depressant (probability of activity signature) (compound-treated mice) | MS: mood stabilizer (probability of activity signature) (compound-treated mice) | PS: anti-psychotic (probability of activity signature) (compound-treated mice) | SD: sedative hypnotic (probability of activity signature) (compound-treated mice) | UN: uncharacterized CNS activity (probability of activity signature) (compound-treated mice) |
| --- | --- | --- | --- | --- | --- | --- | --- | --- | --- | --- | --- |
| C[C@@H]1OCc2cccc(Cl)c2[C@H]1N (single isomer, unassigned) [Compound 160] | − |  |  |  |  |  |  |  |  |  |  |
| CC[C@@H]1OCc2ccccc2[C@H]1N (single isomer, unassigned) [Compound 195] | − |  |  |  |  |  |  |  |  |  |  |
| CCCN[C@H]1c2ccccc2CO[C@H]1C.Cl [Example 272] |  | 3 to 10 | + (LOQ ≤ + <5%) | + (LOQ ≤ + <5%) | ++ (5% ≤ ++ <25%) | + (LOQ ≤ + <5%) | + (LOQ ≤ + <5%) | ++ (5% ≤ ++ <25%) | ++ (5% ≤ ++ <25%) | ++ (5% ≤ ++ <25%) | ++ (5% ≤ ++ <25%) |
| CCN(C)C(=O)Oc1ccc2c(c1)C(N)COC2.Cl (stereo not shown) [Example 277, 4-Aminoisochroman-6-yl ethyl(methyl)carbamate hydrochloride] |  | > 30 | + (LOQ ≤ + <5%) | + (LOQ ≤ + <5%) | + (LOQ ≤ + <5%) | + (LOQ ≤ + <5%) | + (LOQ ≤ + <5%) | + (LOQ ≤ + <5%) | + (LOQ ≤ + <5%) | + (LOQ ≤ + <5%) | + (LOQ ≤ + <5%) |
| CCN(C)C(=O)Oc1ccc2c(c1)CO[C@@H](C)[C@H]2N.Cl [Example 279] |  | 3 to 10 | + (LOQ ≤ + <5%) | + (LOQ ≤ + <5%) | + (LOQ ≤ + <5%) | + (LOQ ≤ + <5%) | ++ (5% ≤ ++ <25%) | +++ (25% ≤ +++ <50%) | ++ (5% ≤ ++ <25%) | ++ (5% ≤ ++ <25%) | ++ (5% ≤ ++ <25%) |
| CCN(C)C(=O)Oc1ccc2c(c1)CO[C@H](C)[C@H]2N.Cl [Example 280] |  | 3 to 10 | + (LOQ ≤ + <5%) | + (LOQ ≤ + <5%) | + (LOQ ≤ + <5%) | ++ (5% ≤ ++ <25%) | ++ (5% ≤ ++ <25%) | ++ (5% ≤ ++ <25%) | + (LOQ ≤ + <5%) | ++ (5% ≤ ++ <25%) | + (LOQ ≤ + <5%) |
| CCN(C)C(=O)Oc1ccc2c(c1)[C@H](N)[C@H](C)OC2.Cl [Example 281] |  | > 30 | + (LOQ ≤ + <5%) | + (LOQ ≤ + <5%) | + (LOQ ≤ + <5%) | + (LOQ ≤ + <5%) | + (LOQ ≤ + <5%) | + (LOQ ≤ + <5%) | + (LOQ ≤ + <5%) | + (LOQ ≤ + <5%) | + (LOQ ≤ + <5%) |

Source: patent US11077090B2, “Compounds and compositions and uses thereof” (Sunovion Pharmaceuticals Inc., priority 2016, dated 2021)
